≈ marks a conversion by molar mass, not a printed value. Numbered stars: 1 amine (or outer) side, 2 acyl side, 3 side chain; on linkers, the order of the positions; unused ones are H or OH. Square brackets hold non-standard residues; d marks the D form. Peptide text beside a SMILES is read from it. ξ: configuration not given here. X1 = N=C1NCC(C(O)C(N[*:1])C(=O)[*:2])N1C1OC(CO)C(O)C(O)C1O; ξEnduracididine(βξ-OH,4'ξ) = N=C1NCC(C(O)C(N)C(=O)O)N1; Tyr(3-NO2) = N[CH](Cc1ccc(O)c([N+](=O)[O-])c1)C(=O)O; ξPhe(βξ-Me) = CC(c1ccccc1)C(N)C(=O)O
Assays:
Experiment in all cases: in vitro antibacterial evaluation, MIC by broth dilution
Type in all cases: cell-based
Enterococcus sp. = settings: broth dilution, 18 hours at 35° C.; for MIC Enterococcus faecalis (ATCC 29212): strain ATCC 29212; for MIC Enterococcus faecalis (GC 2242): strain GC 2242; for MIC Enterococcus faecium (GC 2243): strain GC 2243; for MIC Enterococcus faecalis (GC 4552): strain GC 4552; for MIC Enterococcus faecalis (GC 4553): strain GC 4553; for MIC Enterococcus faecalis (GC 4554): strain GC 4554; for MIC Enterococcus faecium (GC 4556): strain GC 4556; for MIC Enterococcus faecium (GC 4557): strain GC 4557; for MIC Enterococcus avium (GC 4558): strain GC 4558
Method: (§1) Methods for in vitro Antibacterial Evaluation (Table 1)
(§2) The minimum inhibitory concentration (MIC), the lowest concentration of the antibiotic which inhibits growth of the test organism, is determined by the broth dilution method using Muller-Hinton II […] (Baltimore Biological Laboratories) following the recommendations of the National Committee for Clinical Laboratory Standards [Methods for dilution antimicrobial susceptibility tests for bacteria that grow aerobically, approved standard M7-A2, National Committee for Clinical Laboratory Standards, Villanova, Pa.].
(§3) An inoculum level of 5×10^5 CFU/mL, and a range of antibiotic concentrations (64-0.06 μg/mL) is used. […] The test organisms include a spectrum of Gram-positive bacteria comprised of Staphylococcus sp., Streptococcus sp. and Enterococcus sp. These organisms include recent clinical isolates that are resistant to methicillin, penicillin and/or vancomycin.

Staphylococcus sp. = system: Staphylococcus sp.
Method: as §1, §2, §3

Streptococcus sp. = settings: broth dilution, 18 hours at 35° C.; for MIC Streptococcus agalactiae (GC 4564): strain GC 4564; for MIC Streptococcus pneumoniae (GC 4565): strain GC 4565
Method: as §1, §2, §3

Escherichia coli = settings: broth dilution, 18 hours at 35° C.; for MIC Escherichia coli (ATCC 25922): strain ATCC 25922; for MIC Escherichia coli (GC 4559): strain GC 4559; for MIC Escherichia coli (GC 4560): strain GC 4560
Outline: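 Broth dilution in Muller-Hinton II medium per NCCLS standard M7-A2, with an inoculum of 5×10^5 CFU/mL and antibiotic tested over 64-0.06 μg/mL. MIC was taken as the lowest concentration inhibiting visible growth.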

## CC(c1ccccc1)C1NC(=O)CNC(=O)C(CO)NC(=O)C(C(O)C2CNC(=N)N2C2OC(CO)C(O)C(O)C2O)NC(=O)C(C(O)C2CNC(=N)N2)NC(=O)C(Cc2ccc(O)c([N+](=O)[O-])c2)NC1=O (stereo not drawn) [Example 8, Cyclo[glycyl-β-methylphenylalanyl-3-nitrotyrosyl-3-(2-iminoimidazolidin-4-yl)seryl-3-(3-hexopyranosyl-2-iminoimidazolidin-4-yl)serylseryl]] (cyclo(G[ξPhe(βξ-Me)][Tyr(3-NO2)][ξEnduracididine(βξ-OH,4'ξ)][X1]S); configuration not given here)
Enterococcus sp.
  MIC Enterococcus faecalis (ATCC 29212): >128 µg/mL
  MIC Enterococcus faecalis (GC 2242): >128 µg/mL
  MIC Enterococcus faecium (GC 2243): >128 µg/mL
  MIC Enterococcus faecalis (GC 4552): >128 µg/mL
  MIC Enterococcus faecalis (GC 4553): >128 µg/mL
  MIC Enterococcus faecalis (GC 4554): >128 µg/mL
  MIC Enterococcus faecium (GC 4556): >128 µg/mL
  MIC Enterococcus faecium (GC 4557): >128 µg/mL
  MIC Enterococcus avium (GC 4558): >128 µg/mL
Staphylococcus sp.; broth dilution, 18 hours at 35° C.; strain ATCC 29213
  MIC Staphylococcus aureus (ATCC 29213): >128 µg/mL
Staphylococcus sp.; broth dilution, 18 hours at 35° C.; strain GC 1131
  MIC Staphylococcus aureus (GC 1131): >128 µg/mL
Staphylococcus sp.; broth dilution, 18 hours at 35° C.; strain GC 4541
  MIC Staphylococcus aureus (GC 4541): >128 µg/mL
Staphylococcus sp.; broth dilution, 18 hours at 35° C.; strain GC 4542
  MIC Staphylococcus aureus (GC 4542): >128 µg/mL
Staphylococcus sp.; broth dilution, 18 hours at 35° C.; strain GC 4543
  MIC Staphylococcus aureus-SMITH (GC 4543): >128 µg/mL
Staphylococcus sp.; broth dilution, 18 hours at 35° C.; strain GC 4544
  MIC Staphylococcus aureus (GC 4544): >128 µg/mL
Staphylococcus sp.; broth dilution, 18 hours at 35° C.; strain GC 4545
  MIC Staphylococcus aureus (GC 4545): >128 µg/mL
Staphylococcus sp.; broth dilution, 18 hours at 35° C.; strain GC 4546
  MIC Staphylococcus haemolyticus (GC 4546): >128 µg/mL
Staphylococcus sp.; broth dilution, 18 hours at 35° C.; strain GC 4547
  MIC Coagulase Negative Staphylococcus (GC 4547): >128 µg/mL
Staphylococcus sp.; broth dilution, 18 hours at 35° C.; strain GC 4548
  MIC Coagulase Negative Staphylococcus (GC 4548): >128 µg/mL
Staphylococcus sp.; broth dilution, 18 hours at 35° C.; strain GC 4549
  MIC Coagulase Negative Staphylococcus (GC 4549): >128 µg/mL
Staphylococcus sp.; broth dilution, 18 hours at 35° C.; strain GC 4551
  MIC Coagulase Negative Staphylococcus (GC 4551): >128 µg/mL
Staphylococcus sp.; broth dilution, 18 hours at 35° C.; strain ID-3941
  MIC Coagulase Negative Staphylococcus (ID-3941): >128 µg/mL
Streptococcus sp.
  MIC Streptococcus agalactiae (GC 4564): >128 µg/mL
  MIC Streptococcus pneumoniae (GC 4565): >128 µg/mL
Streptococcus sp.; strain ID-3187
  MIC Streptococcus pyogenes (ID-3187): >128 µg/mL
Escherichia coli
  MIC Escherichia coli (ATCC 25922): >128 µg/mL
  MIC Escherichia coli (GC 4559): >128 µg/mL
  MIC Escherichia coli (GC 4560): >128 µg/mL

## CC(c1ccccc1)C1NC(=O)CNC(=O)C(CO)NC(=O)C(C(O)C2CNC(=N)N2C2OC(CO)C(O)C(O)C2O)NC(=O)C(C(O)C2CNC(=N)N2)NC(=O)C(Cc2ccc3oc(SCC(=O)c4ccccc4)nc3c2)NC1=O (centres unmarked) [Example 48]
Enterococcus sp.
  MIC Enterococcus faecalis (ATCC 29212): 64 µg/mL (≈ 55.8 µM)
  MIC Enterococcus faecalis (GC 2242): 64 µg/mL (≈ 55.8 µM)
  MIC Enterococcus faecium (GC 2243): 16 µg/mL (≈ 14 µM)
  MIC Enterococcus faecalis (GC 4552): 64 µg/mL (≈ 55.8 µM)
  MIC Enterococcus faecalis (GC 4553): 16 µg/mL (≈ 14 µM)
  MIC Enterococcus faecalis (GC 4554): 64 µg/mL (≈ 55.8 µM)
  MIC Enterococcus faecium (GC 4556): 64 µg/mL (≈ 55.8 µM)
  MIC Enterococcus faecium (GC 4557): 4 µg/mL (≈ 3.49 µM)
  MIC Enterococcus avium (GC 4558): 8 µg/mL (≈ 6.98 µM)
Enterococcus sp.; strain GC 2691
  MIC Enterococcus faecalis (GC 2691): 64 µg/mL (≈ 55.8 µM)
Enterococcus sp.; strain GC 3059
  MIC Enterococcus faecalis (GC 3059): 64 µg/mL (≈ 55.8 µM)
Enterococcus sp.; strain GC 6189
  MIC Enterococcus faecalis (GC 6189): 64 µg/mL (≈ 55.8 µM)
Staphylococcus sp.; strain ATCC 29213; broth dilution, 18 hours at 35° C.
  MIC Staphylococcus aureus (ATCC 29213): 32 µg/mL (≈ 27.9 µM)
Staphylococcus sp.; strain GC 1131; broth dilution, 18 hours at 35° C.
  MIC Staphylococcus aureus (GC 1131): 16 µg/mL (≈ 14 µM)
Staphylococcus sp.; strain GC 3051; broth dilution, 18 hours at 35° C.
  MIC Staphylococcus aureus (GC 3051): 16 µg/mL (≈ 14 µM)
Staphylococcus sp.; strain GC 3053; broth dilution, 18 hours at 35° C.
  MIC Staphylococcus aureus (GC 3053): 16 µg/mL (≈ 14 µM)
Staphylococcus sp.; strain GC 4541; broth dilution, 18 hours at 35° C.
  MIC Staphylococcus aureus (GC 4541): 16 µg/mL (≈ 14 µM)
Staphylococcus sp.; strain GC 4542; broth dilution, 18 hours at 35° C.
  MIC Staphylococcus aureus (GC 4542): 16 µg/mL (≈ 14 µM)
Staphylococcus sp.; strain GC 4543; broth dilution, 18 hours at 35° C.
  MIC Staphylococcus aureus-SMITH (GC 4543): 16 µg/mL (≈ 14 µM)
Staphylococcus sp.; strain GC 4544; broth dilution, 18 hours at 35° C.
  MIC Staphylococcus aureus (GC 4544): 16 µg/mL (≈ 14 µM)
Staphylococcus sp.; strain GC 4545; broth dilution, 18 hours at 35° C.
  MIC Staphylococcus aureus (GC 4545): 16 µg/mL (≈ 14 µM)
Staphylococcus sp.; strain GC 4546; broth dilution, 18 hours at 35° C.
  MIC Staphylococcus haemolyticus (GC 4546): 8 µg/mL (≈ 6.98 µM)
Staphylococcus sp.; strain GC 4547; broth dilution, 18 hours at 35° C.
  MIC Coagulase Negative Staphylococcus (GC 4547): 4 µg/mL (≈ 3.49 µM)
Staphylococcus sp.; strain GC 4548; broth dilution, 18 hours at 35° C.
  MIC Coagulase Negative Staphylococcus (GC 4548): 8 µg/mL (≈ 6.98 µM)
Staphylococcus sp.; strain GC 4549; broth dilution, 18 hours at 35° C.
  MIC Coagulase Negative Staphylococcus (GC 4549): 4 µg/mL (≈ 3.49 µM)
Staphylococcus sp.; strain GC 4551; broth dilution, 18 hours at 35° C.
  MIC Coagulase Negative Staphylococcus (GC 4551): 16 µg/mL (≈ 14 µM)
Streptococcus sp.; strain ATCC 6301
  MIC Streptococcus pneumoniae (ATCC 6301): 16 µg/mL (≈ 14 µM)
Streptococcus sp.; strain GC 1894
  MIC Streptococcus pneumoniae (GC 1894): 8 µg/mL (≈ 6.98 µM)
Streptococcus sp.; strain GC 4563
  MIC Streptococcus pyogenes (GC 4563): 8 µg/mL (≈ 6.98 µM)
Streptococcus sp.
  MIC Streptococcus agalactiae (GC 4564): 16 µg/mL (≈ 14 µM)
  MIC Streptococcus pneumoniae (GC 4565): 32 µg/mL (≈ 27.9 µM)
Escherichia coli
  MIC Escherichia coli (ATCC 25922): 32 µg/mL (≈ 27.9 µM)
  MIC Escherichia coli (GC 4559): 32 µg/mL (≈ 27.9 µM)
  MIC Escherichia coli (GC 4560): 4 µg/mL (≈ 3.49 µM)

— patent US6914045B2, “Glycopeptide antibiotics” (Wyeth Holdings Corporation, priority 2001, dated 2005)
